# Data published in patent publication US8518956B2, “1-(1-(2-ethoxyethyl)-3-ethyl-7-(4-methylpyridin-2-ylamino)-1H-pyrazolo[4,3-d]pyrimidin-5-yl) piperidine-4-carboxylic acid and salts thereof” (priority 2005, dated 2013).
# Tests used:
# [1] = target: PDE6 enzyme; test: Method 2A: Alternative Human Retina PDE6 Enzyme Inhibition Scintillation Proximity Assay (SPA); assay type: biochemical; conditions: Table F, WO2004096810 examples
# Experimental: Lift the retina with care and locate the optic nerve. Cut through the optic nerve and transfer the retina to a small dish containing a few ml of homogenisation buffer. Gently float the retina out on the surface of the buffer and remove any obvious pigmented material from the iris. Place the retina in a second dish with clean buffer to remove last traces of pigment and then transfer to a 50 ml Corning Costar centrifuge tube (Sigma) and keep on ice. • PDE6 Isolation and Purification from Retina: Allow 2 mls of the homogenisation buffer per bovine retina and 1 ml per retina for dog and human. Homogenise using hand-held homogeniser 3×5 second bursts cooling on ice between each burst. Filter homogenate through two layers of surgical gauze. Spin at 100,000 g for 60 minutes at 4° C. […] Run through FPLC (Pharmacia FPLC LKB/FRAC-100, Pharmacia) or aliquot and store in liquid nitrogen as needed. Method 2A: Alternative Human Retina PDE6 Enzyme Inhibition Scintillation Proximity Assay (SPA)
# The inhibition of PDE6 enzyme activity by a test compound also can be measured in accordance with the in vitro assay of Method 1A, but instead using semi-purified PDE6 enzyme isolated from human, bovine or canine retina in place of PDE5 enzyme. […] [3H]GMP binds to yttrium silicate SPA beads and is detected by scintillation counting.
# [2] = target: T1, PDE11 enzyme (Homo sapiens, UniProt Q9HCR9, DUP921-921); test: Method 3: Human Recombinant PDE11 Enzyme Inhibition Scintillation Proximity Assay (SPA); assay type: biochemical; conditions: Table F, WO2004096810 examples; read-out: METHOD 3: PDE11 IC50
# T1 construct: FLAG (N); made in house; host or cells: Sf9 insect cells (baculovirus, pFastBac)
# T1 sequence (Q9HCR9 with tags, fused parts or gaps DUP921-921 limits assumed): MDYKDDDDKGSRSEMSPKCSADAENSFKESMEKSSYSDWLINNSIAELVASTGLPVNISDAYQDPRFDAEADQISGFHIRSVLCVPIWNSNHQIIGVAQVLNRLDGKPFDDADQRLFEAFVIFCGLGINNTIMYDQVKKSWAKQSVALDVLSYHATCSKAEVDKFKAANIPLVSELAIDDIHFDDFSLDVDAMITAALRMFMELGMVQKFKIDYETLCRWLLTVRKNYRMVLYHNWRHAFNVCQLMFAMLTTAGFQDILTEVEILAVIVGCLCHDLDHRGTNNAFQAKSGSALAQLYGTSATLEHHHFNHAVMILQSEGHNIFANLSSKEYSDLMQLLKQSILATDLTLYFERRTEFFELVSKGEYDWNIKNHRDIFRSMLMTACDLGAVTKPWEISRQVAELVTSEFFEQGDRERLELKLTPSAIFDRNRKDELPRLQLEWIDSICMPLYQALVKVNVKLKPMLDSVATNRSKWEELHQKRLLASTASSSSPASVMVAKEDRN
# Experimental: Method 3: Human Recombinant PDE11 Enzyme Inhibition Scintillation Proximity Assay (SPA)
# PDE11 Expression and Purification:
# Incubate at 27° C. with 220 rpm shaking for 48 hours. Harvest the infected cells by pelleting at 2000 rpm for 10 minutes at 4° C. Store the infected cell pellet at −80° C. until ready for purification. Resuspend the thawed cell pellets to 1×10^7 cells/ml (=20 ml buffer consisting of 20 mM Hepes (pH7.2), 1 mM EDTA, 20 mM sucrose, 150 mM NaCl and protease inhibitor tablets). Mix thoroughly and allow to stand on ice for 10 minutes. Sonicate for 5×5 seconds, on ice. Spin the mixture at 12,000 rpm for 10 minutes at 4° C. in SS34. Store the insoluble pellet at −80° C., and proceed to the purification of the soluble material. • (b) Purification: Prepare the column (1.0 cm diameter, Kontes) by rinsing the empty column twice with TBS. Then mix beads (Anti-FLAG M2 Agarose, Sigma) with TBS and add to the column—allow the beads to settle. Wash the column with 3 column volumes of 0.1M glycine (pH3.5). […] Apply the extract to the column and allow the extract to enter by gravity flow. Reapply the flow-through. Wash the column with 15 column volumes of TBS. Elute the protein with 5×1 ml aliquots of FLAG peptide (Sigma) (i.e., 100 ug/ml in TBS). Elute the remaining protein with 1 ml 0.1M glycine, and immediately add 25 ul 1M Tris pH8 to neutralize. Method 3A: Alternative Human Recombinant PDE11 Enzyme Inhibition Scintillation Proximity Assay (SPA)
# [3] = Method 11: Single Dose Pharmacokinetics and Oral Bioavailability in Male Sprague-Dawley Rat; assay type: in vivo; conditions: mean; for AUC(0-inf) / clearance / half-life / Vd / Cmax / Tmax: plasma, 2 mg/kg; for Vd: read-out: Vdss; for F: po 2 mg/kg vs iv 2 mg/kg
# Experimental: Repeat testing is recommended in order to establish a valid assay test result. P. Pharmacokinetic/Pharmacodynamic Study Method 11: Single Dose Pharmacokinetics and Oral Bioavailability in Male Sprague-Dawley Rat Following Intravenous and Oral Administration
# An in vivo model can be used to evaluate the single dose pharmacokinetic properties and absolute oral bioavailability of a test compound. As described more specifically below, a test compound is administered to Sprague-Dawley (SD) rats either intravenously or orally in a crossover study design and the resulting pharmacokinetic properties and oral bioavailability are measured.
# Male rats are administered a 2.0 mg/kg dose orally (n=2) by gavage as a suspension (0.5% methylcellulose/0.1% Tween 80 in distilled water). After a 72 hour wash-out periond, the same rats were administered 2.0 mg/kg dose bolus intravenously (n=2) as a solution (70% PEG 400/20% 0.05 M Citrate Buffer pH 3/10% Ethanol). Serial blood samples (for plasma) are collected from each rat over a 24 hour post dose for each route. […] Pharmacokinetic parameters of a test compound are determined from the plasma concentration-time data using non-compartmental methods. • LC/MS/MS: 1) Column: Hyperso; AQUASIL C-18 2.1×20 mm, 3.0 μm; 2) Mobile phase: Aqueous Water with 0.1% Formic Acid, Orgainic: Acetonitrile; Ionization: +ESI (API 4000). MRM: m/z 494.4→m/z 394.0 (Example 261 in WO2004096810), m/z 509.44→m/z 409.80 (Example 263 in WO2004096810), m/z 495.33→m/z 395.20 (Example 262 in WO2004096810). The detection limits are 0.12 ng/mL (Example 261 in WO2004096810), 1.3 ng/mL (Example 263 in WO2004096810) and 0.11 ng/mL (Example 262 in WO2004096810).
# Watson (Version 6.4.0.04) is used to calculate mean test compound concentrations, corresponding standard deviations (SD), and percent coefficient of variation (% CV), and to estimate pharmacokinetic parameters (derived by noncompartmental methods) and associated statistics (mean, SD & CV %) if applicable. (Since n=2, no SD or CV calculated ?). Concentrations below the limit of quantitation (BLQ) are reported as zero (0) and are used in the evaluation of mean concentrations and the estimation of AUC. The peak plasma concentration (Cmax) and the time to reach peak concentration (tmax) are recorded directly from individual plasma concentration-time profiles. The terminal log-linear phase of the plasma concentration-time curve is identified by linear regression of data points. The terminal half-life (t1/2) is calculated as ln(2) divided by absolute value of the slope of the terminal log-linear phase. The area under the plasma concentration-time curve from time zero to time of the last quantifiable concentration (t) [AUC(0-t)] is determined using the linear trapezoidal method. The area under the plasma concentration-time curve from time zero to infinity [AUC(0-∞)] is determined as AUC(0-t) plus the extrapolated area. The extrapolated area is determined by dividing the last observed plasma concentration by the slope of the terminal log-linear phase. Systemic plasma clearance (CL) is calculated as dose/AUC(0-∞) while the volume of distribution at steady state (Vdss) is calculated as CL×MRT, where MRT (mean residence time) is defined as AUMC(0-∞)/AUC(0-∞). The absolute PO bioavailability (F) is calculated as a ratio of the dose-normalized AUC(0-∞) of individual animal after PO administration to the dose-normalized AUC(0-∞) of individual animal after IV administration given the crossover study design.
SMILES,IC50 [1],IC50 [2],AUC(0-inf) ([3]; iv),clearance ([3]; iv),half-life ([3]; iv),Vd ([3]; iv),AUC(0-inf) ([3]; po),Cmax ([3]; po),Tmax ([3]; po),half-life ([3]; po),F [3]
Cc1ccnc(Nc2nc(N3CCC(C(=O)O)CC3)nc3c(C)nn(CCOCC(F)(F)F)c23)c1 [WO2004096810 Example 261],110 nM,426 nM,19000 ng·h/mL,1.75 mL/min/kg,6.4 h,0.564 L/kg,20000 ng·h/mL,2350 ng/mL,0.67 h,6.7 h,105%
Cc1cc(Nc2nc(N3CCC(C(=O)O)CC3)nc3c(C)nn(CCOCC(F)(F)F)c23)ncn1 [WO2004096810 Example 262],66.3 nM,471 nM,440 ng·h/mL,76.3 mL/min/kg,5.5 h,6.11 L/kg,280 ng·h/mL,87.1 ng/mL,0.67 h,3.4 h,63.9%
CCc1nn(CCOCC(F)(F)F)c2c(Nc3cc(C)ncn3)nc(N3CCC(C(=O)O)CC3)nc12 [WO2004096810 Example 263],30.6 nM,316 nM,555 ng·h/mL,60.1 mL/min/kg,4.5 h,5.07 L/kg,329 ng·h/mL,102 ng/mL,0.33 h,3.8 h,60.0%
